{"source": "patent US20230348487A1", "about": "“2-AMINOPYRIMIDINE COMPOUND AND PHARMACEUTICAL COMPOSITION THEREOF AND APPLICATION THEREOF” (GUANGZHOU SALUSTIER BIOSCIENCES CO., LTD., priority 2021, published 2023)", "key": {"JAK1": {"target": "JAK1 (Homo sapiens (Human), UniProt P23458)", "sequence (P23458 whole entry)": "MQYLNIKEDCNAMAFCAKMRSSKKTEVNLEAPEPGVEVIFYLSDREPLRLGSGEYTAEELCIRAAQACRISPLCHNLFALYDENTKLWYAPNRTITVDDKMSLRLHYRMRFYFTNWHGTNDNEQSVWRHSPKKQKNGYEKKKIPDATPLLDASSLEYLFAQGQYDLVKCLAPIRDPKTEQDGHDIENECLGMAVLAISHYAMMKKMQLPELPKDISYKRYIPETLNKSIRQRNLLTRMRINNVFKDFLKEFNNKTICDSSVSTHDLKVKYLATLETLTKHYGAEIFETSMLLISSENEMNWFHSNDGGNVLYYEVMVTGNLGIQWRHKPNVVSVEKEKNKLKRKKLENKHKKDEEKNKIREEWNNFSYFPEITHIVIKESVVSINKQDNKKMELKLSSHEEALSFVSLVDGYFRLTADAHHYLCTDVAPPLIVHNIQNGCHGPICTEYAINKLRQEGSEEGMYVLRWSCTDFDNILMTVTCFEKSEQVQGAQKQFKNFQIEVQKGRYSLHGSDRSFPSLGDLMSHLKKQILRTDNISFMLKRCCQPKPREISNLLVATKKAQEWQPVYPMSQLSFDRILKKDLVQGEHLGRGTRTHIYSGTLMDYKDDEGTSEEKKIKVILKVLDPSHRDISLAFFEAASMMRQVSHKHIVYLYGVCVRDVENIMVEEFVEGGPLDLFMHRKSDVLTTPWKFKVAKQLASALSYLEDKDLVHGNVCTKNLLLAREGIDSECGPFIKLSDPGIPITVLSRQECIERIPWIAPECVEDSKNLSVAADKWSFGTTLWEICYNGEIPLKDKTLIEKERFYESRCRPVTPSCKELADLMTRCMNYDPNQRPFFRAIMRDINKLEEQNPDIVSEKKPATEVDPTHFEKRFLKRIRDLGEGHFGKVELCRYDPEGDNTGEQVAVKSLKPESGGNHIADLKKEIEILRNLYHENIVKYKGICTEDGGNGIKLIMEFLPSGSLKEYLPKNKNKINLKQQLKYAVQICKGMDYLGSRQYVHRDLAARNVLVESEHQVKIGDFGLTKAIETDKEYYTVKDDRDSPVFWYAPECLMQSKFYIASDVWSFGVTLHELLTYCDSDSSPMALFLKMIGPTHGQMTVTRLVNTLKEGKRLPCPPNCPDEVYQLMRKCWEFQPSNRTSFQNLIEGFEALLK", "experiment": "Z′-Lyte kinase inhibitory activity test", "assay_type": "biochemical", "settings": "ATP concentration Km", "in_short": "(§1)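 Compounds (10 μM top final, 3-fold, 10 points, duplicate wells) were incubated with titrated kinase, ATP and 2 μM peptide at 30 °C for 1.5 h in HEPES pH 7.5/MgCl2/EGTA/Brij-35 buffer. Development followed for 1 h; phosphorylation ratio gave kinase inhibition, experiments repeated at least thrice.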"}, "JAK2": {"target": "JAK2 (Homo sapiens (Human), UniProt O60674)", "sequence (O60674 whole entry)": "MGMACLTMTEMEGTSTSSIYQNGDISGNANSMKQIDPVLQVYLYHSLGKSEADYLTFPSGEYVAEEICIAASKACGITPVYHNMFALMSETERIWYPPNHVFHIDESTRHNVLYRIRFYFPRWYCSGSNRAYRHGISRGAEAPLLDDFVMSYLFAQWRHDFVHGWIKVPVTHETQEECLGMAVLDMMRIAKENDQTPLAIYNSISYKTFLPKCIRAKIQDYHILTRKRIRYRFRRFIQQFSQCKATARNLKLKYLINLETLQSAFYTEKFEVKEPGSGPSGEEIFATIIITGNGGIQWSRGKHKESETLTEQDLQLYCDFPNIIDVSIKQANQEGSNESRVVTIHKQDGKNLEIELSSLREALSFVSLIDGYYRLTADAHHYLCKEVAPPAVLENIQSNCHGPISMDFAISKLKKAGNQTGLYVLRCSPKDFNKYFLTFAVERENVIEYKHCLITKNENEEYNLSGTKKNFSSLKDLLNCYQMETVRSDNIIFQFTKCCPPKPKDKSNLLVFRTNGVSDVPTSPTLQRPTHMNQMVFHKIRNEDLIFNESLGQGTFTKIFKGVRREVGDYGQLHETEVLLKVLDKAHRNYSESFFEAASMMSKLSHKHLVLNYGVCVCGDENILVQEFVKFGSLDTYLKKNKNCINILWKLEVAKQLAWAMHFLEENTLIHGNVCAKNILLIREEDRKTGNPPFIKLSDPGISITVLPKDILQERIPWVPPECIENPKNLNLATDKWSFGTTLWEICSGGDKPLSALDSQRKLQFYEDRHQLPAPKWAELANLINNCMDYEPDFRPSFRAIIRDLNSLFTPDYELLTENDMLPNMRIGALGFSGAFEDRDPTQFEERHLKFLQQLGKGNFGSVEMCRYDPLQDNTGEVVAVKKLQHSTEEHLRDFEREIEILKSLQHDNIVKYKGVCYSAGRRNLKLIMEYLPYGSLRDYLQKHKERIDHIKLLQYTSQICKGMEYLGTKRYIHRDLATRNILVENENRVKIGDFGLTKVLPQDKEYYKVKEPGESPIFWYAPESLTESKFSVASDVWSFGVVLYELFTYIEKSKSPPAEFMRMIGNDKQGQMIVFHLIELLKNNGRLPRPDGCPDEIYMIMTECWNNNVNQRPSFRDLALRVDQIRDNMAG", "experiment": "Z′-Lyte kinase inhibitory activity test", "assay_type": "biochemical", "settings": "ATP concentration Km", "in_short": "as §1"}, "JAK3": {"target": "JAK3 (Homo sapiens (Human), UniProt P52333)", "sequence (P52333 whole entry)": "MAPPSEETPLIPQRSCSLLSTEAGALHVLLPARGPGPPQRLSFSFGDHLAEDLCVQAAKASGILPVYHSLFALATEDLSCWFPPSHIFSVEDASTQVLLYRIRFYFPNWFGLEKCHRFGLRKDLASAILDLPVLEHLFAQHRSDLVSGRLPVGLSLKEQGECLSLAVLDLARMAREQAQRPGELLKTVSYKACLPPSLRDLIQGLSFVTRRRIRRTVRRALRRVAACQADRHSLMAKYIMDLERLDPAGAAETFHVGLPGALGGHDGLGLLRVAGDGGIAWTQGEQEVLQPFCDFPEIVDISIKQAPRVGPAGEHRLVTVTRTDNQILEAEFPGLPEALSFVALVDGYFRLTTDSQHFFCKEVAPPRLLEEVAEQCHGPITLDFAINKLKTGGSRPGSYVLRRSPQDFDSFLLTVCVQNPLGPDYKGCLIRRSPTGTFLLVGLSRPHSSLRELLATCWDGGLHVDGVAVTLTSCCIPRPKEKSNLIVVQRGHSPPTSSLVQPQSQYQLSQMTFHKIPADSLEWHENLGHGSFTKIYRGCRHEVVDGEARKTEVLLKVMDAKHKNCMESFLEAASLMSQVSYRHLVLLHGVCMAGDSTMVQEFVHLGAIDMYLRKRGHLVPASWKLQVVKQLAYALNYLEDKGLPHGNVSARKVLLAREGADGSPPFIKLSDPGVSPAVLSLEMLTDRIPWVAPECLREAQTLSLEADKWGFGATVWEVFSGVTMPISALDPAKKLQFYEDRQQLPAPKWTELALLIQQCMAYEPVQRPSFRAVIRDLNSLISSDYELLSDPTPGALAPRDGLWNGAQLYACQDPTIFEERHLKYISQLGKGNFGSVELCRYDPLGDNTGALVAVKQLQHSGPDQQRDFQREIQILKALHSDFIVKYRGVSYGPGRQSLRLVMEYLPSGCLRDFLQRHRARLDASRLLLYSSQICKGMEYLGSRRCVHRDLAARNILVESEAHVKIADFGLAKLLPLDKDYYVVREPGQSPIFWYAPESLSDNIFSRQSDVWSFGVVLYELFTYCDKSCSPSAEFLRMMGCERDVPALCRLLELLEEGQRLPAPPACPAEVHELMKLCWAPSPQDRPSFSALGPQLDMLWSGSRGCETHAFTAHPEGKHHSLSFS", "experiment": "Z′-Lyte kinase inhibitory activity test", "assay_type": "biochemical", "in_short": "as §1"}, "TYK2": {"target": "TYK2 (Homo sapiens (Human), UniProt P29597)", "sequence (P29597 whole entry)": "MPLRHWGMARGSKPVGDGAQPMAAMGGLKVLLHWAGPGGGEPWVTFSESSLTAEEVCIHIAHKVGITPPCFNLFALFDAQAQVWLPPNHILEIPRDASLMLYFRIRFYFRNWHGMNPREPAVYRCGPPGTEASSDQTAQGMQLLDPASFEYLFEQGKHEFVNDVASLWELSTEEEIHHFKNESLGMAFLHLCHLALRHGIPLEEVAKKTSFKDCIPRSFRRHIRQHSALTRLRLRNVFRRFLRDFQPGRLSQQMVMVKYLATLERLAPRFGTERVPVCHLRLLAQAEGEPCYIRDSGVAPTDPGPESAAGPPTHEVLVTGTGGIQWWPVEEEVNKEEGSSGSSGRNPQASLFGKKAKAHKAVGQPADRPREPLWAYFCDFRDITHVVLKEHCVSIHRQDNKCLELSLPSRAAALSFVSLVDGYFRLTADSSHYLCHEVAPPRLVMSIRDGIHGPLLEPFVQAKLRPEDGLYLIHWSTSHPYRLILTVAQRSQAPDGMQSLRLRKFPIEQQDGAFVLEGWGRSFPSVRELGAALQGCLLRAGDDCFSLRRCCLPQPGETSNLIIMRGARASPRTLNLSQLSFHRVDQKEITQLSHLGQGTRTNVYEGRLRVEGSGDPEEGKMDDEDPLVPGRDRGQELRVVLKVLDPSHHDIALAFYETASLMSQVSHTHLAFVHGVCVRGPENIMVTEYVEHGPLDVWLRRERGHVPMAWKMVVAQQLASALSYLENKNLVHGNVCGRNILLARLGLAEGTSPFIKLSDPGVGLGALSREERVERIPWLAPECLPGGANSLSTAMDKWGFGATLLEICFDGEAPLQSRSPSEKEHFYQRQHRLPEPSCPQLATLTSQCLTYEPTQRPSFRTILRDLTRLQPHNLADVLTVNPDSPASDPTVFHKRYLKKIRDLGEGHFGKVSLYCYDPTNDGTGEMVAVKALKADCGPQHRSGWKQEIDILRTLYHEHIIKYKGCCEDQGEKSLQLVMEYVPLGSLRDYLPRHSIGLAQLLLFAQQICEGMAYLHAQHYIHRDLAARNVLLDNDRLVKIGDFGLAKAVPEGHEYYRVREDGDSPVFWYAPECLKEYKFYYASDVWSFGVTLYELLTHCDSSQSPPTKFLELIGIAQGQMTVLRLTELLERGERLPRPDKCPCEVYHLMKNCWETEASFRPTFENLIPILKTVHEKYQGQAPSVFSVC", "experiment": "Z′-Lyte kinase inhibitory activity test", "assay_type": "biochemical", "settings": "ATP concentration Km", "in_short": "as §1"}, "U937 cells [1]": {"test_system": "U937 cells", "experiment": "Cell cycle detection in U937 cells", "assay_type": "cell-based, human", "settings": "24 hours", "description": "Cell cycle detection: Took cells in good growth status and adjusted the density to 8×10^5 cells/mL, and evenly distributed them into 6-well plates, 2 mL per well. Then the compound was diluted in gradient and added to the cell suspension, and incubated in an incubator for 24 hours. BD Cycletest™ Plus DNA Reagent Kit was used for staining in this experiment. After 24 hours, the cells were collected into a 15 mL centrifuge tube, and the 6-well plate was washed twice with PBS. The washing solutions were merged into a 15 mL centrifuge tube, centrifuged at 12000 rpm for 5 minutes, and the supernatant was discarded. Added 5 mL of buffer solution to each tube and the cells were gently resuspended. Centrifuge: 12000 rpm for 5 minutes, the supernatant was carefully removed and left about 50 μL of liquid without discarding. Added 1.5 mL of buffer solution to each tube to gently resuspend the cells, which were carefully transferred to a 1.5 mL EP tube. Adjusted the cell concentration to 1×10^6 cells/mL, to meet the requirements of 5×10^5 cells to complete this experiment. Centrifuged at 1200 rpm for 5 minutes, and the supernatant was carefully aspirated. Added 125 μL of Solution A, mixed gently and reacted at room temperature for 10 minutes. Added 100 μL of Solution B, mixed gently and reacted at room temperature for 10 minutes. […]"}, "U937 cells [2]": {"test_system": "U937 cells", "experiment": "Cell apoptosis detection in U937 cells", "assay_type": "cell-based, human", "settings": "48 hours", "description": "Cell apoptosis detection: Took cells in good growth status and adjusted the density to 8×10^5 cells/mL, evenly distributed them into 6-well plates, 2 mL per well. Then the compound was diluted in gradient and added to the cell suspension, and placed in the incubator for 48 hours. PE coupled Annexin V apoptosis detection kit was used for staining in this experiment. After 48 hours, cells were collected into a 15 mL centrifuge tube, and the 6-well plate was washed twice with PBS. The washing solutions were merged into a 15 mL centrifuge tube, centrifuged at 1200 rpm for 5 minutes, and the supernatant was discarded. The cells were washed with 1.5 mL of cold PBS and resuspended and transferred to a 1.5 mL EP tube. Repeated washing with cold PBS once and after centrifugation at 1200 rpm for 5 minutes, discarded the supernatant. Added 100 μL of 1×Binding Buffer (PBS dilution) to resuspend the cells. Added 2.5 μL of Annexin V-PE and 2.5 μL 7-AAD, mixed gently and reacted at room temperature in the dark for 15 minutes. Added 400 μL of 1× Binding Buffer, and then perform detection with an up-flow cytometry within 1 hour. Note: It is necessary to set up a single label control tube with apoptotic cells, and sample tubes with the same conditions; place the stained samples on ice."}, "U937 cells [3]": {"test_system": "U937 cells", "experiment": "In vivo anti-tumor activity, U937 subcutaneous tumor in mice", "description": "Animal model: 4-6 weeks old Male CB-17 SCID mice\nU937 cells were cultured in vitro (1640+10% FBS+1% dual antibody) and amplified to 50 plates (10 cm). The cells were collected into a 50 mL centrifuge tube, centrifuged at 800 rpm for 5 minutes. The supernatant was discarded, and the cells was enriched into a 50 mL sterile centrifuge tube, washed once with PBS, and centrifuged at 800 rpm for 5 minutes. The cells were suspended with an appropriate amount of sterile PBS, counted and diluted to 2×10^7 cells/mL; 0.2 mL cells per animal were inoculated subcutaneously in the right anterior axilla of the animal (preferably inoculated before the animal is 20 g).\n5-7 days after inoculation (Since U937 tumor grows fast, observe once every 3 days), when the tumor grew to 100-200 mm^3, the mice were grouped and administered the drugs, and excluded the animals with too large or too small tumors. The mice were randomly divided into a medication group and a solvent group, with 6 mice in each group. The initial tumor volume and body weight were recorded on the day of grouping.\nThe administration cycle was 10 days, and daily administration was applied. The body weight and tumor volume of animals were measured once every 2 days. The formula for calculating tumor volume is: V=π/6*a*b*b (wherein a and b are the length and width of the tumor, respectively). The next day after the end of administration, the animal was weighed and the tumor volume was measured; and then the animal was sacrificed and the tumor was dissected to weighed. The tumor body was fixed with neutral formalin for pathological observation. Animal blood samples were collected for routine blood analysis according to experimental needs, and the main organs of the animals were collected for pathological analysis. At the end of the study, all animals were euthanized and the tumors, livers, kidneys, and lungs of […] were collected for further analysis."}}, "note": "pIC50: −log10 of the molar value."}
{"smiles": "C=CC(=O)Nc1cc(Nc2ncc(Cl)c(O[C@@H]3CO[C@H]4[C@@H]3OC[C@H]4OC)n2)ccc1N(C)CCN(C)C", "note": "[LS 6-45]", "values": [{"measurement": "pIC50", "setting": "JAK1", "result": 4.89}, {"measurement": "pIC50", "setting": "JAK2", "result": 5.69}, {"measurement": "pIC50", "setting": "JAK3; ATP concentration 1 mM", "result": 8.82}, {"measurement": "pIC50", "setting": "JAK3; ATP concentration Km", "result": 8.90}, {"measurement": "pIC50", "setting": "TYK2", "result": 5.96}, {"measurement": "cell cycle related proteins (CDK2, CDK4, CDK6, Cyclin B1, Cyclin D3, Cyclin E1)", "setting": "U937 cells [1]", "result": "significantly down-regulated"}, {"measurement": "cell cycle", "setting": "U937 cells [1]; different concentrations", "result": "obvious G0/G1 phase block"}, {"measurement": "cell apoptosis", "setting": "U937 cells [2]", "result": "No apoptosis was observed"}, {"measurement": "toxic side effects and body weight", "setting": "U937 cells [3]; CB-17 SCID mice, during the administration period", "result": "no toxic side effects and no signs of weight loss"}, {"measurement": "tumor growth", "setting": "U937 cells [3]; U937 tumor in CB-17 SCID mice, 50 mg/kg dose group, oral bid", "result": "completely stagnant or even regressed"}, {"measurement": "growth rate of tumors", "setting": "U937 cells [3]; U937 tumor in CB-17 SCID mice, during 10 days administration, versus control group", "result": "significantly lower than that of the control group"}, {"measurement": "phosphorylation of JAK3, STAT3, STAT5 and cell cycle related proteins in tumor tissues (Western blot)", "setting": "U937 cells [3]; tumor tissues of experimental mice, compared with control group", "result": "significant inhibitory effects"}]}
